Assays:
Assay in all cases: relative viability (nuclei count vs DMSO), 5 days (fraction); higher = more cells survive
[1] = compound: CNC(=O)c1ccccc1Sc1ccc2c(/C=C/c3ccccn3)n[nH]c2c1 [Axitinib] + Cc1nc(NC(=O)N2CCC[C@H]2C(N)=O)sc1-c1ccnc(C(C)(C)C(F)(F)F)c1 [Alpelisib] (partner 2 µM)
Method in brief: (§1)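 Nuclei were stained with Hoechst during a one-step fixation (final 0.05% Triton X-100, 1% formaldehyde, 1 ug/ml Hoechst) carried out 5 days after dosing, then counted on 4× images. The cells, lung cancer lines in 1536-well plates, had been dosed by pin tool the day after seeding with one drug alone or a fixed anchor-drug dose plus five library-drug doses (not always all listed) in √10 steps. Relative viability is the nuclei count in treated wells divided by that in vehicle wells, and each value is the median of duplicate plates.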

[2] = compound: CC1=CC=C(C=C1)C(=O)CN2C3=C(CCCC3)SC2=N [Pifithrin_alpha] + C[C@]1(O)C[C@@H](c2nc(-c3ccc4ccc(-c5ccccc5)nc4c3)c3c(N)nccn32)C1 [Linsitinib] (partner 1 µM)
Method in brief: as §1

[3] = compound: CNC(=O)c1ccccc1Sc1ccc2c(/C=C/c3ccccn3)n[nH]c2c1 [Axitinib] + Cc1nc(Nc2ncc(C(=O)Nc3c(C)cccc3Cl)s2)cc(N2CCN(CCO)CC2)n1 [Dasatinib] (partner 0.075 µM)
Method in brief: as §1

[4] = compound: CC1=CC=C(C=C1)C(=O)CN2C3=C(CCCC3)SC2=N [Pifithrin_alpha] + O=C(c1cc(Cc2n[nH]c(=O)c3ccccc23)ccc1F)N1CCN(C(=O)C2CC2)CC1 [Olaparib] (partner 8 µM)
Method in brief: as §1

| Cell Line | relative viability ([1]; first compound 0.005 µM) | relative viability ([1]; first compound 0.01581 µM) | relative viability ([1]; first compound 0.05 µM) | relative viability ([1]; first compound 0.1581 µM) | relative viability ([1]; first compound 0.5 µM) | relative viability ([2]; first compound 1 µM) | relative viability ([2]; first compound 3.162 µM) | relative viability ([2]; first compound 10 µM) | relative viability ([2]; first compound 31.62 µM) | relative viability ([2]; first compound 100 µM) | relative viability ([3]; first compound 0.005 µM) | relative viability ([3]; first compound 0.01581 µM) | relative viability ([3]; first compound 0.05 µM) | relative viability ([3]; first compound 0.1581 µM) | relative viability ([3]; first compound 0.5 µM) | relative viability ([4]; first compound 1 µM) | relative viability ([4]; first compound 3.162 µM) | relative viability ([4]; first compound 10 µM) | relative viability ([4]; first compound 31.62 µM) | relative viability ([4]; first compound 100 µM) |
| --- | --- | --- | --- | --- | --- | --- | --- | --- | --- | --- | --- | --- | --- | --- | --- | --- | --- | --- | --- | --- |
| NCI-H838 | 1.12 | 1 | 1.05 | 1 | 1.18 | 0.96 | 0.888 | 0.853 | 0.735 | 0.782 | 0.288 | 0.352 | 0.342 | 0.282 | 0.262 | 0.723 | 0.505 | 0.469 | 0.363 | 0.534 |
| NCI-H1755 | 0.987 | 0.84 | 0.922 | 0.878 | 0.915 | 0.935 | 0.991 | 0.905 | 0.802 | 0.969 | 0.444 | 0.436 | 0.479 | 0.439 | 0.388 | 0.789 | 0.747 | 0.734 | 0.544 | 0.73 |
| EMC-BAC-2 | 0.788 | 0.702 | 0.742 | 0.749 | 0.808 | 0.799 | 0.859 | 0.765 | 0.745 | 0.927 | 0.353 | 0.327 | 0.315 | 0.379 | 0.383 | 0.419 | 0.412 |  | 0.252 | 0.351 |
| EKVX | 1.06 | 0.82 | 0.838 | 0.87 | 1 | 1.05 | 0.644 | 0.705 | 0.615 | 0.739 | 0.602 | 0.31 | 0.334 | 0.435 | 0.507 | 0.825 | 0.685 | 0.531 | 0.266 | 0.336 |
| NCI-H647 | 1.27 | 1.24 | 1.28 | 1.11 | 1.6 | 1.27 | 1.2 | 1.02 |  | 0.748 | 0.206 | 0.182 | 0.194 | 0.18 | 0.126 | 0.531 | 0.44 | 0.531 | 0.217 | 0.492 |
| NCI-H358 | 1.03 | 0.898 | 0.806 | 0.738 | 1.05 | 0.777 | 0.83 | 0.671 | 0.547 | 0.541 | 0.116 | 0.153 | 0.155 | 0.142 | 0.146 | 0.628 | 0.559 | 0.459 | 0.252 | 0.555 |
| LU99A | 0.492 | 0.498 | 0.533 | 0.515 | 0.522 | 0.539 | 0.64 | 0.619 |  | 0.529 | 0.626 | 0.563 | 0.589 | 0.577 | 0.475 | 0.248 | 0.242 | 0.277 |  | 0.236 |
| NCI-H1734 | 0.547 | 0.691 | 0.702 | 0.626 | 0.707 | 0.994 | 0.89 | 0.862 | 0.611 | 0.889 | 0.515 | 0.491 | 0.507 | 0.499 | 0.446 | 0.588 | 0.502 | 0.529 | 0.328 | 0.575 |
| HARA | 0.877 | 0.909 | 0.975 | 0.824 | 1.02 | 0.988 | 1.02 | 0.9 | 0.542 | 0.857 | 0.211 | 0.2 | 0.293 | 0.246 | 0.253 | 0.659 | 0.931 | 1 | 0.305 | 0.808 |
| NCI-H2228 | 0.884 | 0.699 | 0.798 | 0.677 | 0.964 | 1.04 | 0.606 | 0.583 | 0.544 | 0.555 | 0.471 | 0.616 | 0.558 | 0.476 | 0.697 | 0.681 | 0.634 | 0.605 | 0.647 | 0.549 |
| HCC-827 | 0.955 | 0.923 | 0.991 | 0.978 | 1.08 | 0.942 | 0.96 | 0.91 | 0.589 | 0.841 | 0.302 | 0.209 | 0.356 | 0.398 | 0.274 | 0.248 | 0.672 | 0.715 | 0.355 | 0.648 |
| EPLC-272H | 1.11 | 0.868 | 0.949 | 0.884 | 0.915 |  | 1.07 | 1.21 | 0.995 | 1.11 | 0.342 | 0.337 | 0.372 | 0.353 | 0.241 | 0.762 | 0.585 | 0.72 | 0.425 | 0.467 |
| SW 1573 | 0.766 | 0.954 | 0.783 | 0.774 | 0.738 | 0.82 | 0.713 | 0.698 | 0.768 | 0.758 | 0.586 | 0.564 | 0.796 | 0.365 | 0.424 | 0.493 | 0.466 | 0.413 |  | 0.342 |
| LXF-289 | 1.05 | 0.961 | 1.03 | 0.958 | 1.05 | 0.985 | 0.967 | 0.959 | 0.869 | 0.961 | 0.242 | 0.208 | 0.285 | 0.304 | 0.271 | 1.16 | 0.994 | 1.1 | 0.717 | 1.16 |
| SK-LU-1 | 1.11 | 1.32 | 1.05 | 1.06 | 1.63 | 1.08 | 1.16 | 1.26 | 0.769 | 0.832 | 0.163 | 0.186 | 0.171 | 0.181 | 0.215 | 0.418 | 0.486 | 0.453 | 0.354 | 0.457 |
| NCI-H23 | 0.83 | 0.862 | 0.554 | 0.861 | 0.796 | 0.543 | 0.546 | 0.567 | 0.443 | 0.515 | 1.04 | 0.872 | 0.933 | 0.778 | 0.803 | 0.248 | 0.249 | 0.223 | 0.191 | 0.177 |

— the supplement of paper PMC10307832
